Test [1] deals with Hartley male guinea pigs loaded with phenylephrine. The experiment in a line: Pressure Flow Study using guinea pigs loaded with phenylephrine. It is filed as in vivo, guinea pig. Particulars: i.v., tamsulosin 0.01 mg/kg, Example 20 0.1 mg/kg, urethane-anesthetized, phenylephrine 3 μg/animal/min. As for the experimental part: Hartley male guinea pigs (Slc) weighing 300 to 350 g was anesthetized with urethane (1.2 g/kg, i.p.), and a median was incised to expose bladder. Two polyethylene tubes were inserted into bladder, and one of them was used for injecting a physiological saline and the other was used for measuring a bladder internal pressure. A cannulae was inserted into a left femoral vein, and phenylephrine was continuously administered intravenously at 3 μg/animal/min until the completion of experiment. A physiological saline was injected into bladder at a rate of 0.3 mL/min, and injection was stopped when urination was confirmed. The urinated urine weight was measured with an electron balance (HX-400, A & D) at real time. Analogue data of bladder internal pressure and urine weight were inputted into an AD transducer (MP-100, BIOPAC Systems), and digital signals were analyzed with exclusive analyzing software (AcqKnowledge 3.5.3, BIOPAC Systems). The sampling rate of data was 10 Hz, and data of urination amount and urine flow rate were subjected to a lowcut filter at 0.5 Hz in order to remove noises. The value of urine weight was differentiated to calculate urine flow rate (Q), and maximum urine flow rate (Qmax) at urination and bladder internal pressure (Pves (Qmax)) at maximum urine flow were calculated. The urination weight 1 g was converted into 1 mL to calculate the urination amount, and divided by bladder volume to obtain voiding efficiency (Voiding Efficiency). Example compound was dissolved in DMSO, and the solution was intravenously administered at 0.5 mL/kg. 10 minutes after administration of test compound, urinary reflection was recorded again, and change in urine flow rate (ΔQmax), and change in bladder internal pressure (ΔPves(Qmax)) and voiding efficiency were assessed. The change in urine flow rate (ΔQmax) and change in bladder internal pressure (ΔPves. (Qmax)) were an amount of change (Δ value) obtained by subtracting each value before administration of test compound from each value after administration, and voiding efficiency was assessed by a relative value (% of pre-value) of after administration of test compound relative to before administration. Tamsulosin which is a known α1 receptor antagonist was measured similarly. A significance diffenence was tested by a Dunnett test by comparing with each value of a vehicle (DMSO)-administered group.

Test [2] has as its target T1, human erythrocyte-derived acetylcholinesterase (Homo sapiens, UniProt P22303).
T1 construct: Human erythrocyte-drived acetylcholinesterase (Sigma) was dissolved in distilled water; purchased Sigma; host or cells: human erythrocytes (natural source)
Put plainly: Measurement of acetylcholinesterase inhibitory activity (acetylthiocholine / Ellman method). The class given is biochemical. To be noted: 50% inhibition concentration, repeated at least three times, read-out: AchE: IC50. Here is the method: a) Measurement of Acetylcholinesterase Inhibitory Activity
Acetylcholinesterase inhibitory activity of Example compounds was measured using human erythrocyte-derived acetylcholinesterase by an acetylthiocholine method (Ellman method).
Human erythrocyte-drived acetylcholinesterase (Sigma) was dissolved in distilled water to the concentration of 0.2 IU/mL to obtain an enzyme specimen. 20 μL of a drug solution, 30 μL of 80 mM Tris-HCL (pH 7.4), 50 μL of an enzyme specimen and 50 μL of 5 mM 5,5-dithio-bis (2-nitrobenzoic acid)(Sigma) were dispensed on a 96-well microplate, and this was shaken for 10 seconds. 50 μL of 4 mM acetylthiocholine iodide (Sigma) was added, this was shaken again and, immediately after, increase in absorbance at 414 nm was measured at 30 second intervals for 10 minutes. Enzyme activity was measured by the following equation: R=5.74×10^−7×ΔA (wherein R represents enzyme activity (mol), and ΔA represents increase in absorbance at 414 nm)
Regarding each compound, the experiment was repeated at least three times to obtain 50% inhibition concentration (IC50). According to the similar method to the above-mentioned, acetylcholinesterase inhibitory activity of distigmine which is a known acetylcholinesterase inhibitor was measured.

The mark [3] stands for this setting: 10 minutes after administration minus before.

T1 sequence (P22303 32-617 isoform P22303-2 limits assumed): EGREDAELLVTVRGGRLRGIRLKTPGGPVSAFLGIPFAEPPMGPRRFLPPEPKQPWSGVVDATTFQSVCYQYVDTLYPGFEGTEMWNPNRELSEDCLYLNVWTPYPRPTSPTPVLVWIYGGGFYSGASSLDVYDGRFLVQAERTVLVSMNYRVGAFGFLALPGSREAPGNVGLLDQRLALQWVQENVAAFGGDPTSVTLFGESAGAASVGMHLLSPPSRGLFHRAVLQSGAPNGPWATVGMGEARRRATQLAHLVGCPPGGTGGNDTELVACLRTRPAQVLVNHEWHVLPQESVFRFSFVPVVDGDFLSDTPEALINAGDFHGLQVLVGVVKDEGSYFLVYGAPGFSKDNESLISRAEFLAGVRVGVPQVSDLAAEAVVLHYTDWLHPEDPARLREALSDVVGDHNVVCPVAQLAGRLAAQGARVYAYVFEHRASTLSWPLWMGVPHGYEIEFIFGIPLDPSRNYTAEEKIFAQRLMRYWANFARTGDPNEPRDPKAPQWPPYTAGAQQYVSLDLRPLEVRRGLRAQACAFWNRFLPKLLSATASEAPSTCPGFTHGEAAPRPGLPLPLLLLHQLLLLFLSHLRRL

Turning to `COc1ccccc1CCNCCCCCC(=O)c1cc2c3c(c1)CCN3C(=O)CC2.Cl` [Example 20, 8-(6-[[2-(2-Methoxyphenyl)ethyl]amino]hexanoyl]-1,2,5,6-tetrahydro-4H-pyrrolo[3,2,1-ij]quinolin-4-one hydrochloride], in test [1] (setting [3]), the “change in bladder internal pressure (ΔPves(Qmax))” value was −1.73 ± 1.54 cmH2O and the “change in maximum urine flow rate (ΔQmax)” value amounted to 0.060 ± 0.016 mL/s. Besides, the “voiding efficiency (% of pre-value)” value in test [1] (after administration relative to before) is reported as 150.1 ± 20.1 %. The IC50 in test [2] worked out at 179 nM.

These data come from patent US7132547B2, “Preventives/remedies for urinary disturbance” (priority 2001, dated 2006).
